Test results reported in patent publication US11970498B2, “CDK2 inhibitors” (BLUEPRINT MEDICINES CORPORATION, priority 2021, dated 2024).

How the values were obtained:
CDK2/Cyclin E = CDK2/Cyclin E (Homo sapiens, UniProt P24941); assay: CDK2/Cyclin E biochemical phosphorylation assay (Caliper mobility shift); conditions: apparent IC50; 1.0 mM ATP or ATP Km; 1.25 nM enzyme; 25° C.; read-out: CDK2/cyclin E1 IC50
Outline: (§1)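 7.5 µM 5-FAM-QSPKKG-CONH2 peptide phosphorylated by CDK2/Cyclin E (1.25 nM) or GST-CDK1/Cyclin B1 (1.5 nM) at 1.0 mM ATP or ATP Km, in HEPES pH 7.5, MgCl2, Brij-35, DTT, 1% DMSO, 25 °C to 10–20% conversion. EDTA stop; Caliper mobility-shift readout; apparent IC50 from percent activity vs log concentration.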

CDK1/Cyclin B1, GST-tag = target: T1, CDK1/Cyclin B1, GST-tag (Homo sapiens, UniProt P06493); assay: CDK1/Cyclin B1 biochemical phosphorylation assay (Caliper mobility shift); conditions: apparent IC50; 1.0 mM ATP or ATP Km; 1.5 nM enzyme; 25° C.
T1 construct: GST
T1 sequence (P06493 whole entry): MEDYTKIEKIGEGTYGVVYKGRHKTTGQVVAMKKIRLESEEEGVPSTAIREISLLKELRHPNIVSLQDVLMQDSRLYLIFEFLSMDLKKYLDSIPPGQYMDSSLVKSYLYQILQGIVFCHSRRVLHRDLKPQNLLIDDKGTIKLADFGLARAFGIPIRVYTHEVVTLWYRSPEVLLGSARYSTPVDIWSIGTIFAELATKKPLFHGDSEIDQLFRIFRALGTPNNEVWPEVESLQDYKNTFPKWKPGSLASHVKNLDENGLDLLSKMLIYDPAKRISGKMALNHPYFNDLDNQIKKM
T1 sequence (P14635 whole entry partner): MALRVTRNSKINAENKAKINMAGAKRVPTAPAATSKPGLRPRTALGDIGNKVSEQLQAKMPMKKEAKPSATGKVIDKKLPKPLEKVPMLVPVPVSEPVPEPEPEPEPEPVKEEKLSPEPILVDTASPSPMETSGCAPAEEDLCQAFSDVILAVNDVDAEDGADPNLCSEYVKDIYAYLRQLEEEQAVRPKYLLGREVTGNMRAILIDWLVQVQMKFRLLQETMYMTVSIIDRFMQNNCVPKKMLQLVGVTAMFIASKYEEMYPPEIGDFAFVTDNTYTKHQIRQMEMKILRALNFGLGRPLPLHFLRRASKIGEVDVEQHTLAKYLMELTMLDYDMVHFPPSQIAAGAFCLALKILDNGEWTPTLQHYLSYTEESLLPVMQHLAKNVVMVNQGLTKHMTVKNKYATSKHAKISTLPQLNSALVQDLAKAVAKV
Outline: as §1

| IC50 (CDK2/Cyclin E) | IC50 (CDK1/Cyclin B1, GST-tag) | SMILES |
| --- | --- | --- |
| ≤ 10 nM | 100 to 500 nM | CC(C)(C1CC1)n1ncc2ncc(Nc3cc(OC(F)F)[nH]n3)nc21 [Example 23, 1-(2-cyclopropylpropan-2-yl)-N-(5-(difluoromethoxy)-1H-pyrazol-3-yl)-1H-pyrazolo[3,4-b]pyrazin-6-amine] |
| 20 to 30 nM | ≥ 500 nM | FC(F)Oc1cc(Nc2cnc3cnn(Cc4ccccc4)c3n2)n[nH]1 [Example 36, 1-benzyl-N-(5-(difluoromethoxy)-1H-pyrazol-3-yl)-1H-pyrazolo[3,4-b]pyrazin-6-amine] |
| 20 to 30 nM | ≥ 500 nM | Fc1cccc(Cn2ncc3ncc(Nc4cc(OC(F)F)[nH]n4)nc32)c1 [Example 39, N-(5-(difluoromethoxy)-1H-pyrazol-3-yl)-1-(3-fluorobenzyl)-1H-pyrazolo[3,4-b]pyrazin-6-amine] |
| 10 to 20 nM | ≥ 500 nM | Fc1ccc(Cn2ncc3ncc(Nc4cc(OC(F)F)[nH]n4)nc32)cc1 [Example 40, N-(5-(difluoromethoxy)-1H-pyrazol-3-yl)-1-(4-fluorobenzyl)-1H-pyrazolo[3,4-b]pyrazin-6-amine] |
| 10 to 20 nM | ≥ 500 nM | FC(F)Oc1cc(Nc2cnc3cnn(C4CCC(F)(F)CC4)c3n2)n[nH]1 [Example 44, 1-(4,4-difluorocyclohexyl)-N-(5-(difluoromethoxy)-1H-pyrazol-3-yl)-1H-pyrazolo[3,4-b]pyrazin-6-amine] |
| ≤ 10 nM | ≥ 500 nM | C[C@@H](c1ccc(F)cn1)n1ncc2ncc(Nc3cc(OC(F)F)[nH]n3)nc21 [Example 48, (S)-N-(5-(difluoromethoxy)-1H-pyrazol-3-yl)-1-(1-(5-fluoropyridin-2-yl)ethyl)-1H-pyrazolo[3,4-b]pyrazin-6-amine] |
| ≤ 10 nM | 100 to 500 nM | OC1(Cn2ncc3ncc(Nc4cc(OC(F)F)[nH]n4)nc32)CCOCC1 [Example 49, 4-((6-((5-(difluoromethoxy)-1H-pyrazol-3-yl)amino)-1H-pyrazolo[3,4-b]pyrazin-1-yl)methyl)tetrahydro-2H-pyran-4-ol] |
| ≤ 10 nM | ≥ 500 nM | C[C@@H](c1ncccc1F)n1ncc2ncc(Nc3cc(OC(F)F)[nH]n3)nc21 [Example 50, (S)-N-(5-(difluoromethoxy)-1H-pyrazol-3-yl)-1-(1-(3-fluoropyridin-2-yl)ethyl)-1H-pyrazolo[3,4-b]pyrazin-6-amine] |
| 30 to 100 nM | ≥ 500 nM | FC(F)Oc1cc(Nc2cnc3cnn(Cc4cscn4)c3n2)n[nH]1 [Example 52, N-(5-(difluoromethoxy)-1H-pyrazol-3-yl)-1-(thiazol-4-ylmethyl)-1H-pyrazolo[3,4-b]pyrazin-6-amine] |
| 30 to 100 nM | ≥ 500 nM | FC(F)Oc1cc(Nc2cnc3cnn(Cc4nccs4)c3n2)n[nH]1 [Example 54, N-(5-(difluoromethoxy)-1H-pyrazol-3-yl)-1-(thiazol-2-ylmethyl)-1H-pyrazolo[3,4-b]pyrazin-6-amine] |
| ≤ 10 nM | ≥ 500 nM | C[C@@H](c1cncs1)n1ncc2ncc(Nc3cc(OC(F)F)[nH]n3)nc21 [Example 58, (S)-N-(5-(difluoromethoxy)-1H-pyrazol-3-yl)-1-(1-(thiazol-5-yl)ethyl)-1H-pyrazolo[3,4-b]pyrazin-6-amine] |
| ≤ 10 nM | ≥ 500 nM | COc1ncccc1[C@H](C)n1ncc2ncc(Nc3cc(OC(F)F)[nH]n3)nc21 [Example 59, (S)-N-(5-(difluoromethoxy)-1H-pyrazol-3-yl)-1-(1-(2-methoxypyridin-3-yl)ethyl)-1H-pyrazolo[3,4-b]pyrazin-6-amine] |
| ≤ 10 nM | ≥ 500 nM | C[C@@H](c1cccnc1)n1nc(Cl)c2ncc(Nc3cc(OC(F)F)[nH]n3)nc21 [Example 61, (S)-3-chloro-N-(5-(difluoromethoxy)-1H-pyrazol-3-yl)-1-(1-(pyridin-3-yl)ethyl)-1H-pyrazolo[3,4-b]pyrazin-6-amine] |
| ≤ 10 nM | ≥ 500 nM | N#Cc1nn(CC2CCOCC2)c2nc(Nc3cc(OC(F)F)[nH]n3)cnc12 [Example 62, 6-((5-(difluoromethoxy)-1H-pyrazol-3-yl)amino)-1-((tetrahydro-2H-pyran-4-yl)methyl)-1H-pyrazolo[3,4-b]pyrazine-3-carbonitrile] |
| ≤ 10 nM | 100 to 500 nM | C[C@@H](c1cccnc1F)n1nc(C#N)c2ncc(Nc3cc(OC(F)F)[nH]n3)nc21 [Example 63, (S)-6-((5-(difluoromethoxy)-1H-pyrazol-3-yl)amino)-1-(1-(2-fluoropyridin-3-yl)ethyl)-1H-pyrazolo[3,4-b]pyrazine-3-carbonitrile] |

Further lines, the molecule ahead of its results:

| SMILES | IC50 (CDK2/Cyclin E) | IC50 (CDK1/Cyclin B1, GST-tag) |
| --- | --- | --- |
| OC[C@@H](C1CCOCC1)n1ncc2ncc(Nc3cc(OC(F)F)[nH]n3)nc21 [Example 30, (R)-2-(6-((5-(difluoromethoxy)-1H-pyrazol-3-yl)amino)-1H-pyrazolo[3,4-b]pyrazin-1-yl)-2-(tetrahydro-2H-pyran-4-yl)ethan-1-ol] | 20 to 30 nM | ≥ 500 nM |
| C[C@H](C1CCOCC1)n1ncc2ncc(Nc3cc(OC(F)F)[nH]n3)nc21 [Example 34, (R)-N-(5-(difluoromethoxy)-1H-pyrazol-3-yl)-1-(1-(tetrahydro-2H-pyran-4-yl)ethyl)-1H-pyrazolo[3,4-b]pyrazin-6-amine] | 10 to 20 nM | ≥ 500 nM |
| FC(F)Oc1cc(Nc2cnc3cnn(Cc4cccnc4)c3n2)n[nH]1 [Example 35, N-(5-(difluoromethoxy)-1H-pyrazol-3-yl)-1-(pyridin-3-ylmethyl)-1H-pyrazolo[3,4-b]pyrazin-6-amine] | ≤ 10 nM | ≥ 500 nM |
| Fc1ccccc1Cn1ncc2ncc(Nc3cc(OC(F)F)[nH]n3)nc21 [Example 37, N-(5-(difluoromethoxy)-1H-pyrazol-3-yl)-1-(2-fluorobenzyl)-1H-pyrazolo[3,4-b]pyrazin-6-amine] | 20 to 30 nM | ≥ 500 nM |
| CCOc1cc(Nc2cnc3cnn(CC4CCOCC4)c3n2)n[nH]1 [Example 38, N-(5-ethoxy-1H-pyrazol-3-yl)-1-((tetrahydro-2H-pyran-4-yl)methyl)-1H-pyrazolo[3,4-b]pyrazin-6-amine] | ≤ 10 nM | 100 to 500 nM |
| Fc1ccc(Cn2ncc3ncc(Nc4cc(OC(F)F)[nH]n4)nc32)cn1 [Example 41, N-(5-(difluoromethoxy)-1H-pyrazol-3-yl)-1-((6-fluoropyridin-3-yl)methyl)-1H-pyrazolo[3,4-b]pyrazin-6-amine] | ≤ 10 nM | ≥ 500 nM |
| Fc1cncc(Cn2ncc3ncc(Nc4cc(OC(F)F)[nH]n4)nc32)c1 [Example 42, N-(5-(difluoromethoxy)-1H-pyrazol-3-yl)-1-((5-fluoropyridin-3-yl)methyl)-1H-pyrazolo[3,4-b]pyrazin-6-amine] | 20 to 30 nM | ≥ 500 nM |
| C[C@@H](c1cccc(F)c1)n1ncc2ncc(Nc3cc(OC(F)F)[nH]n3)nc21 [Example 43, (S)-N-(5-(difluoromethoxy)-1H-pyrazol-3-yl)-1-(1-(3-fluorophenyl)ethyl)-1H-pyrazolo[3,4-b]pyrazin-6-amine] | ≤ 10 nM | ≥ 500 nM |
| COc1cc(Nc2cnc3cnn([C@@H](C)c4ccccn4)c3n2)n[nH]1 [Example 45, (S)-N-(5-methoxy-1H-pyrazol-3-yl)-1-(1-(pyridin-2-yl)ethyl)-1H-pyrazolo[3,4-b]pyrazin-6-amine] | ≤ 10 nM | ≥ 500 nM |
| C[C@@H](c1ccccc1F)n1ncc2ncc(Nc3cc(OC(F)F)[nH]n3)nc21 [Example 46, (S)-N-(5-(difluoromethoxy)-1H-pyrazol-3-yl)-1-(1-(2-fluorophenyl)ethyl)-1H-pyrazolo[3,4-b]pyrazin-6-amine] | ≤ 10 nM | ≥ 500 nM |
| C[C@@H](c1ccc(F)cc1)n1ncc2ncc(Nc3cc(OC(F)F)[nH]n3)nc21 [Example 47, (S)-N-(5-(difluoromethoxy)-1H-pyrazol-3-yl)-1-(1-(4-fluorophenyl)ethyl)-1H-pyrazolo[3,4-b]pyrazin-6-amine] | ≤ 10 nM | ≥ 500 nM |
| C[C@@H](C1CC1)n1ncc2ncc(Nc3cc(OC(F)F)[nH]n3)nc21 [Example 51, (S)-1-(1-cyclopropylethyl)-N-(5-(difluoromethoxy)-1H-pyrazol-3-yl)-1H-pyrazolo[3,4-b]pyrazin-6-amine] | ≤ 10 nM | 100 to 500 nM |
| FC(F)Oc1cc(Nc2cnc3cnn(Cc4cncs4)c3n2)n[nH]1 [Example 53, N-(5-(difluoromethoxy)-1H-pyrazol-3-yl)-1-(thiazol-5-ylmethyl)-1H-pyrazolo[3,4-b]pyrazin-6-amine] | ≤ 10 nM | ≥ 500 nM |
| C[C@H](C1CC1)n1ncc2ncc(Nc3cc(OC(F)F)[nH]n3)nc21 [Example 55, (R)-1-(1-cyclopropylethyl)-N-(5-(difluoromethoxy)-1H-pyrazol-3-yl)-1H-pyrazolo[3,4-b]pyrazin-6-amine] | ≤ 10 nM | ≥ 500 nM |
| FC(F)Oc1cc(Nc2cnc3c(Cl)nn(CC4CCOCC4)c3n2)n[nH]1 [Example 56, 3-chloro-N-(5-(difluoromethoxy)-1H-pyrazol-3-yl)-1-((tetrahydro-2H-pyran-4-yl)methyl)-1H-pyrazolo[3,4-b]pyrazin-6-amine] | 10 to 20 nM | ≥ 500 nM |
| O[C@H]1CC[C@@H](n2ncc3ncc(Nc4cc(OC(F)F)[nH]n4)nc32)CC1 [Example 57, (1s,4s)-4-(6-((5-(difluoromethoxy)-1Hpyrazol-3-yl)amino)-1Hpyrazolo[3,4-b]pyrazin-1-yl)cyclohexan-1-ol] | 30 to 100 nM | ≥ 500 nM |
| C[C@@H](c1cccnc1Cl)n1ncc2ncc(Nc3cc(OC(F)F)[nH]n3)nc21 [Example 60, (S)-1-(1-(2-chloropyridin-3-yl)ethyl)-N-(5-(difluoromethoxy)-1H-pyrazol-3-yl)-1H-pyrazolo[3,4-b]pyrazin-6-amine] | ≤ 10 nM | ≥ 500 nM |
